Earlier results on 3 compounds are cited in patent US11311591B2, “Use of copaifera oleoresin in pathologies of the prostate” (PIERRE FABRE MEDICAMENT, priority 2017, dated 2022).

For data set [1], the target named is T1, 5αR1 (Homo sapiens, UniProt P18405).
T1 sequence (P18405 1-259): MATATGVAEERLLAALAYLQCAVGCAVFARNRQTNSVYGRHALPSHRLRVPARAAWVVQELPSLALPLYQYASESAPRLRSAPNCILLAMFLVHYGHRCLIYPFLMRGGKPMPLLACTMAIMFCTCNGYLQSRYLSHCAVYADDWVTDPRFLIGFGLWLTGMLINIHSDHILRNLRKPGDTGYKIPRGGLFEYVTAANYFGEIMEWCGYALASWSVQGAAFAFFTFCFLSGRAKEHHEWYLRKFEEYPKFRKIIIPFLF

Data set [2] relates to serum dihydrotestosterone.
For data set [3], the target named is HSP27 (Homo sapiens, UniProt P04792). The conditions noted are these: prior art, Phytochemistry Letters 10 (2014).
Chain of HSP27 (P04792 whole entry): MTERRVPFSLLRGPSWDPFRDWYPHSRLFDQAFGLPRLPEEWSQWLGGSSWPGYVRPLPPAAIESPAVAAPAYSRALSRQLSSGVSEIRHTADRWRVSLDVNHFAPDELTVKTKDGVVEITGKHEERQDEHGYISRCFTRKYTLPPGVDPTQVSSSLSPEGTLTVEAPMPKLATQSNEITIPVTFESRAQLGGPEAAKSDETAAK

With `CC(C)(C)NC(=O)[C@H]1CC[C@H]2[C@@H]3CC[C@H]4NC(=O)C=C[C@]4(C)[C@H]3CC[C@]12C` [Finasteride], in data set [1], the half-maximal inhibitory concentration (IC50) was 360 nM. In data set [2], the “reduction of mean serum dihydrotestosterone levels” value is 70.8%.
Take `C[C@]12C=CC(=O)N[C@@H]1CC[C@@H]1[C@@H]2CC[C@]2(C)[C@@H](C(=O)Nc3cc(C(F)(F)F)ccc3C(F)(F)F)CC[C@@H]12` [dutasteride]: the IC50 in data set [1] is 6 nM. The “reduction of mean serum dihydrotestosterone levels” value in data set [2] is recorded as 94.7%.
With `CC1CCC2(C)C(C(=O)O)=CCCC2C1(C)CCc1ccoc1` (centres unmarked) [hardwickiic acid, Hardwickiic acid], the “inhibition of HSP27 (in words)” value in data set [3] was “inhibits HSP27”.
